Assay results taken from patent US20120101015A1, “ANTI-WEAR AGENTS WITH A REDUCED NEUROTOXICITY” (priority 2009, published 2012).
Read-outs that look alike come from different tables or passages of the source.

Legend:
[1] = target: human butyrylcholine esterase (Homo sapiens, UniProt P06276); format: biochemical
Method: A more sensitive assay was used in order to discriminate alkylphenyl diphenyl phosphates, di-alkylphenyl phenyl phosphates and tri-alkylphenyl phosphates based on their potential ability to inhibit BChE.
The assay was essentially the same as that described in Example 2 except that the triaryl phosphate solution to be tested was prepared in pure ethanol instead of in sodium phosphate buffer.
Some experiments were performed with rat liver microsomes (RLM) because human liver microsomes (HLM) were not available in sufficient quantity. However, human butyrylcholine esterase was used in all assays.
Briefly, base stock triarylphosphate solutions were prepared by dissolution or dilution of a triarylphosphate of interest in ethanol at 2.5 mg/ml. Dilution solutions were then prepared in buffer containing 10% ethanol. 7.5 μl of each dilution solution comprising a triarylphosphate was added to a liver microsome mix in phosphate buffer to give a solution comprising microsomes, NADPH (1 mM) and triarylphosphate at a concentration ranging from 0.20 to 25 μg/ml. This pre-incubation was done at room temperature for 20-25 minutes. After incubation, 7.5 μl of BChE solution (at 9.75 μg/ml in phosphate buffer) was added to the resulting microsome-containing solution. The resulting solution was incubated for 20-25 minutes. The BChE residual activity was then measured as described in Example 2 hereabove.
For each triarylphosphates, the percentages of residual BChE activity were determined for triarylphosphate final concentrations ranging from 0.3 μg/ml to 20 μg/ml.
The Durad 125® combination was used as positive control. For reminder, Durad 125 consists in a mixture of meta and para isomers of tricresyl phosphate.

[2] = target: plasma BChE (Rattus norvegicus, UniProt Q9JKC1); settings: oral dose of 240 mg/kg, 24 hours post-dosing
Chain of plasma BChE (Q9JKC1 24-597): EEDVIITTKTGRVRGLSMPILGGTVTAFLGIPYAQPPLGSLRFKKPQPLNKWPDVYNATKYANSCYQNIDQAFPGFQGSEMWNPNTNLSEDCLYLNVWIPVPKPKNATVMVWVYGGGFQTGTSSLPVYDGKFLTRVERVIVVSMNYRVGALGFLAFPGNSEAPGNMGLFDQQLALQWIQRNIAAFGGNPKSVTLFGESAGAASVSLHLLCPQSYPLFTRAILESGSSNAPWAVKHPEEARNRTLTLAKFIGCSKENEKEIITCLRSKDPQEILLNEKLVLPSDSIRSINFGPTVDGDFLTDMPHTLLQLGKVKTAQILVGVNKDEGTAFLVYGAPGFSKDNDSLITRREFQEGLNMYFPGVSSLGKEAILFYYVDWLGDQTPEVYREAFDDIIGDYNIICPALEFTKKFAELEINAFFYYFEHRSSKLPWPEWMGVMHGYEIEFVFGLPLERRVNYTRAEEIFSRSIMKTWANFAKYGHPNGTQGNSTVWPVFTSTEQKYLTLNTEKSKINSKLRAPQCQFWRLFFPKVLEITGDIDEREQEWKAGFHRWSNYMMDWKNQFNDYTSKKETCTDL
Method: The activity of BChE in the plasma of rats was determined following oral administration of 240, 120, 60 and 10 mg/kg of body weight of Durad 125 or tri-para-tert-butyl phosphate at 6 hours postdosing and 24 hours postdosing. Each dose solution was prepared in a corn oil vehicle and administered by gavage. Control animals were administered an appropriate amount of corn oil (witout any triarylphosphate compounds). All animals were fasted for approximately 16 h prior to administration of the dose containing Durad 125, tri-p-t-butylphenyl phosphate or only corn oil.
Three to six animals per time point and per dose were humanely anesthetized, and sacrificed. For each animal, the blood was collected and the plasma was separated by centrifugation. The plasma samples were then stored at −80° C. until performing the BChE activity assay.
The BChE activity assay was performed as previously described according to Ellman et al (Biochem. Pharmacol. 7, 88-95).

[3] = system: hens; settings: oral, Weiner and Jortner 1999; cited from earlier work
[4] = target: human butyrylcholinesterase (BChE) (Homo sapiens, UniProt P06276); test: In vitro BChE activity assay after incubation with human liver microsomes and NADPH (Example 2, stock in phosphate buffer); format: biochemical; settings: for BChE residual activity percentage: triaryl phosphate 25 μg/ml, BChE reference activity 3.76 nmol DTNB/min
Chain of human butyrylcholinesterase (BChE) (P06276 29-602): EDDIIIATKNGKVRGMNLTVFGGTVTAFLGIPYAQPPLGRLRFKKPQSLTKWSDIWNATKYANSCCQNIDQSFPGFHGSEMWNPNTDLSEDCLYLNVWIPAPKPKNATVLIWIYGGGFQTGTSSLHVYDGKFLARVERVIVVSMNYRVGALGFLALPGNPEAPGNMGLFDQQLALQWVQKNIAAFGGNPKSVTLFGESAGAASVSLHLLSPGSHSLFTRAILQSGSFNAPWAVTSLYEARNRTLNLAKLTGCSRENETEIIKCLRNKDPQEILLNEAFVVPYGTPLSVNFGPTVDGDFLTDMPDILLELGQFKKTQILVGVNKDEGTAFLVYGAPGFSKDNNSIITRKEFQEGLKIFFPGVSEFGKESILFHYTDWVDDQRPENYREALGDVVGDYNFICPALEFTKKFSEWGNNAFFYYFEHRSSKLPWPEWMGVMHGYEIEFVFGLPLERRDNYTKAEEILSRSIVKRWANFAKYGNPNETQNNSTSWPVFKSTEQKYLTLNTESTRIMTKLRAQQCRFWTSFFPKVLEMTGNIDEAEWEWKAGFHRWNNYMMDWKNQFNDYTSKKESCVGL
Method: As part of the study, the neurotoxicity of triaryl phosphates and combinations thereof was evaluated through an in vitro test using a model enzyme of esterase: the human butyrylcholinesterase. The human butyrylcholinesterase (BChE), or plasma cholinesterase, has an enzyme activity profile close to that of human acetylcholinesterase.
In this assay, triarylphosphates of interest are first incubated with human liver microsomes in the presence of NADPH to enable the production of potential metabolites. The incubation with microsomes is then followed by incubation with purified human BChE in the context of a micro-BChE activity assay.
This in vitro assay thus reproduces the in vivo metabolization of triaryl phosphates in the liver and enables to evaluate the anti-esterase activity of the resulting metabolites.
Six individual preparations of the same amount were collected to form a homogeneous pool representing the variability amongst the individuals, using a Potter-Elvehem Glass-Teflon homogenizer, with a 5 run-procedure in ice.
Mixture samples of 1.7 ml were collected in polypropylene centrifuge tubes, and thereafter stored at −80° C. The measured liver microsome content was 7.83 mg/ml.
A 250 μg/ml triaryl phosphate solution was prepared in a 50 mM sodium phosphate buffer at pH 7.4 by vigorously stirring in a vortex mixer for one minute. […]
The BChE activity is then measured according to the protocol defined by Ellman and al, (Ellman and al., 1961, Biochem Pharmacol, 7: 88-95), modified for use in micro-titration format. […]
Monitoring the TNB formation is effected by measuring the absorbance at 405 nm for 4 minutes at 23° C. with a microplate optical reader such as SpectraMax Plus spectrophotometer.
The BChE residual activity in the presence of triaryl phosphate is then expressed depending on the BChE reference activity, that is to say depending on the BChE activity measured in the presence of liver microsomes and NADPH and in the absence of triaryl phosphate (reference experiment).

[5] = rat liver microsomes (RLM), concentrations 1 μg/ml to 20 μg/ml
[6] = human liver microsomes (HLM), concentrations 1 μg/ml to 20 μg/ml
[7] = human liver microsomes, up to 20 μg/ml (FIG. 3a)

Chain of human butyrylcholine esterase (P06276 29-602): as above

## dodecylphenyl diphenyl phosphate
[1]; [5]
  Minimal BChE residual activity: 16%

## CC(C)c1ccc(OP(=O)(Oc2ccccc2)Oc2ccc(C(C)C)cc2)cc1 [di-para-isopropylphenyl phenylphosphate]
[1]; [5]
  Minimal BChE residual activity: 76.5%

## 1-methylnonylphenyl diphenyl phosphate
[1]; [5]
  Minimal BChE residual activity: 5.2%

## CC(C)(C)c1cccc(OP(=O)(Oc2cccc(C(C)(C)C)c2)Oc2cccc(C(C)(C)C)c2)c1 [tri-meta-tert-butylphenyl phosphate]
[1]
  Minimal BChE residual activity: >100%

## CC(C)(C)c1ccc(OP(=O)(Oc2ccc(C(C)(C)C)cc2)Oc2ccc(C(C)(C)C)cc2)cc1 [P1, Tri-para-tert-butylphenyl phosphate]
[2]
  inhibition of plasma BChE: does not induce BChE inhibition
[1]; [6]
  Minimal BChE residual activity: 90%
[1]; [7]
  inhibition of BChE: did not induce a significant inhibition of BChE
[1]; [5]
  Minimal BChE residual activity: >100%

## CC(C)(C)c1ccc(OP(=O)(Oc2ccccc2)Oc2ccc(C(C)(C)C)cc2)cc1 [di-para-tert-butylphenyl phenylphosphate]
[1]; [6]
  Minimal BChE residual activity: 85.2%
[1]; [7]
  inhibition of BChE: did not induce a significant inhibition of BChE

## CC(C)c1ccccc1OP(=O)(Oc1ccccc1C(C)C)Oc1ccccc1C(C)C [P3, Tri-ortho-isopropylphenyl phosphate]
[1]
  Minimal BChE residual activity: 72.6%

## CC(C)c1ccc(OP(=O)(Oc2ccc(C(C)C)cc2)Oc2ccc(C(C)C)cc2)cc1 [P2, Tri-para-isopropylphenyl phosphate]
[1]
  Minimal BChE residual activity: >100%
  inhibition of BChE: did not inhibit BChE

## CC(C)(C)c1ccc(OP(=O)(Oc2ccccc2)Oc2ccccc2)cc1 [para-tert-butylphenyl diphenyl phosphate]
[1]; [6]
  Minimal BChE residual activity: 44.9%
[1]; human liver microsomes, concentrations higher than 5 μg/ml (FIG. 3a)
  inhibition of BChE: at least 40%

## CC(C)(C)c1ccccc1OP(=O)(Oc1ccccc1C(C)(C)C)Oc1ccccc1C(C)(C)C [tri-ortho-tert-butylphenyl phosphate]
[1]
  Minimal BChE residual activity: >100%

## Cc1ccccc1OP(=O)(Oc1ccccc1C)Oc1ccccc1C [C6, tri-ortho-cresyl phosphate]
[3]
  neurotoxicity: highly neurotoxicity
[4]
  BChE residual activity percentage: very low

## O=P(Oc1ccccc1)(Oc1ccccc1)Oc1ccccc1 [C7, tri-phenylphosphate]
[3]
  neurotoxicity: non neurotoxic or poorly neurotoxic
[4]
  BChE inhibiting potential after incubation: non negligible inhibiting potential
  BChE residual activity percentage: 44.8 +/− 10.4%
